Laboratory results: paper PMC7217877, “N-AS-triggered SPMs are direct regulators of microglia in a model of Alzheimer’s disease” (Nature Communications, 2020)
Values joined by “and” are separate entries in the source; they are usually repeats but may differ in a detail not shown here. Identical values can stand only once.

Biological target: T1, COX2 S565A (Homo sapiens, UniProt P35354, S565A)
T1 construct: His (N); made in house
T1 sequence (P35354 18-604 S565A): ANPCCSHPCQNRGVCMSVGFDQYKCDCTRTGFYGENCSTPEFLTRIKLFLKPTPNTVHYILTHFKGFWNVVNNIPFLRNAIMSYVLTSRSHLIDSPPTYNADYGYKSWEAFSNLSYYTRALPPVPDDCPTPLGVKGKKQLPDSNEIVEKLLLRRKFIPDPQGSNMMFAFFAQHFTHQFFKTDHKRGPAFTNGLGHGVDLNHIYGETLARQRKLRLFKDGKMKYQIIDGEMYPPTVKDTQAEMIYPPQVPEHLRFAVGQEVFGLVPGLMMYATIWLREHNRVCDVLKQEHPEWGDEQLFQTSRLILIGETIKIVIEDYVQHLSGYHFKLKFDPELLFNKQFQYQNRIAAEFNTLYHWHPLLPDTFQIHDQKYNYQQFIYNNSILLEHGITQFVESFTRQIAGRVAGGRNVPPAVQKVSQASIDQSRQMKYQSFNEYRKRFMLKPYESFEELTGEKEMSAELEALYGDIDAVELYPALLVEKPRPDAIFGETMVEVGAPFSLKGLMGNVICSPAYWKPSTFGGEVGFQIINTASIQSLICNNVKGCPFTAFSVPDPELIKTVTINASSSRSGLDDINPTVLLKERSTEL
Experiment: lipid mediator and SPM biosynthesis by recombinant COX2 with 5-LOX (LC-MS/MS)
Type: biochemical
Conditions: COX2 S565A + 5-LOX; replicates
Source text: Single point mutations in SphK1 (R56A, R57A, R24A, R185A, D178A, and F192A) and COX2 (S565A, N181A, T564A, and S567A) were generated using the In-Fusion Cloning Kits (Clontech) and ORF cDNA expression plasmids of human SphK1 and COX2 gene (Sino Biological Inc, HG15679-NH and HG12036-NH), according to the manufacturer’s instructions. The forward and reverse primers described in Supplementary Table 4. The SphK1 WT, SphK1 mutants, COX2 WT, and COX2 mutant plasmids were transformed in the One shot TOP 10 competent cell (Invitrogen). The bacteria were grown in Luria-Bertani (LB, Invitrogen) plates supplemented with 50 μg ml^−1 kanamycin (Sigma-Aldrich) at 37 °C. The bacterial cell pellets were resuspended in lysis buffer containing 20 mM sodium phosphate (GE Healthcare), 500 mM NaCl (GE Healthcare), 20 mM imidazole (pH 7.4) (GE Healthcare), 0.2 mg ml^−1 lysozyme (Sigma-Aldrich), 20 μg ml^−1 DNase I (Roche), 1 mM MgCl2 (Sigma-Aldrich), and 1 mM PMSF (Sigma-Aldrich) before being lysed by sonication and clarified by centrifugation at 15,493×g for 10 min. Proteins were purified from the soluble fraction using His-Spin Trap columns (GE Healthcare) and the binding and acetylation assays were performed.
Lipid mediators metabololipidomics were performed according to previously described procedures with minor modifications[4],[30]. To confirm the biosynthesis of lipid mediators by recombinant COX2 treated with N-AS or aspirin, 10 U of human recombinant COX2 (Cayman, 60122) was incubated in the presence of 500 μM aspirin (Sigma-Aldrich, A5376) or N-AS (Sigma-Aldrich, 01912) at 37 °C for 30 min. The enzyme was filtered with a Microcon column (Millipore) to remove unreacted aspirin or N-AS and was then resuspended in 0.1 M Tris-HCl (pH 8.0). Next, 500 μM phenol (Sigma-Aldrich) and 1 μM hematin-porcine (Sigma-Aldrich) were added immediately before incubation with 100 μM AA, EPA or DHA (Cayman) at 37 °C for 2 h, respectively. The mixtures were incubated with 30 U of human 5-LOX (Cayman, 60402) containing 2 mM CaCl2 (Sigma-Aldrich), 1 mM ATP (Amresco) and 5 μM 13-HpODE (Cayman) as activators. Also, to validate the importance of residue S565 for N-AS-acetylation of COX2 and production of SPMs, 10 U of the COX2 S565A mutant was used in the above-described method. In addition, to confirm SPM generation in neurons and microglia, these cells were treated with Aβ and sonicated in neuronal and glial culture medium. […] To evaluate the relationship of N-AS and SPM production in microglia, microglia were isolated from WT, APP/PS1, and APP/PS1 treated with N-AS mice at 9 months of age. The microglia were sonicated and resuspended in microglial culture medium. The supernatants were incubated with 100 μM AA, EPA, and DHA (Cayman) at 37 °C for 2 h. A 50 μl aliquot of the mixture from each cell lysate was added to a 250 μl aliquot of 1 ng ml^−1 of 15S-LXA4-d5 (internal standard, Cayman) methanol solution. After vortexing for 10 min and centrifuging at 15,974×g for 5 min, the supernatant was subjected to the analysis of the lipid mediators using an Agilent 6470 Triple Quad LC-MS/MS system (Agilent) coupled to an Agilent 1290 HPLC system. Chromatographic separation was achieved using a Synergi Polar RP (4 μm, 2.0 mm i.d. × 150 mm, Phenomenex). Analytes were eluted with a mobile phase consisting of water: formic acid (100:0.1 v/v) (phase A) and methanol: formic acid (100:0.1 v/v) (phase B) in gradient elution mode for 23 min a flow rate of 0.2 ml min^−1. The elution gradient was as follows: from 0 to 0.1 min the content of phase A was 37% and the content of phase A was decreased to 10% and maintained for 5.5 min. The content of phase A was increased back to 37% at 6.0 min and maintained for 23 min. Quantification was carried out using MRM in negative ionization mode and collision energy of 10–15 eV. The mass transition from Q1 to Q3 is shown in Supplementary Table 2. In this study, the peak areas for all components were automatically integrated using MassHunter B 06.00. […]

| SMILES | 15R-LxA4 quantification (Fig 2c) | RvD1 quantification (Fig 2c) | RvE1 quantification (Fig 2c) |
| --- | --- | --- | --- |
| CC(=O)Oc1ccccc1C(=O)O [Aspirin, acetylsalicylic acid, reference compound] | 9150.99 and 8986.22 and 7776.32 and 8811.42 and 9216.35 and 9050.41 | 427.4 and 465.61 and 668.98 and 626.93 and 591.63 and 656.31 and 339.99 | 3219.24 and 3312.36 and 4211.76 and 3281.98 and 3114.22 and 3326.6 |
| CCCCCCCCCCCCC/C=C/[C@@H](O)[C@H](CO)NC(C)=O [N-AS, N-((2S,3R,E)-1,3-Dihydroxyoctadec-4-en-2-yl)acetamide] | 4593.92 and 7037.27 and 8226.06 and 8467.27 and 8518.27 | 267.45 and 147.28 and 357.09 and 383.18 and 373.27 and 420.17 and 225.36 | 2644.24 and 1751.77 and 1695.83 and 1984.56 and 2632.92 and 1703.12 and 1993.09 |
